This is an account of results in ChEMBL document CHEMBL5344435 (J Med Chem, 2024).

A short description of the data set: in vivo. Particulars: C57BL/6J, mouse, po, 10 mg/kg.

Regarding `[O-][n+]1cc(O)cc(CCCc2ccc(Cl)c(C(F)(F)F)c2)c1`, the highest level (Cmax at 24 h) was 102 ng/mL.
